Earlier results as cited in US10172842B2, “Sustained release oral dosage form containing dalfampridine” (PharmaDax Inc., priority 2015, dated 2019).

What was measured:
[1] = in the absence of other risk factors
[2] = plasma concentrations lower than 13 ng/mL

Nc1ccncc1 [dalfampridine, 4-aminopyridine]
plasma dalfampridine concentration considered a likely threshold for increased risk of seizure [1]: approximately 100 ng/mL
changes in walking speed in MS patients [2]: low percentage changes in walking speed
